We go through 45 molecules from patent US11992535B2, “Compounds and probes for imaging huntingtin protein” (CHDI Foundation, Inc., priority 2019, dated 2024).

As usually defined, the EC50 is the concentration at which the effect is half-maximal.

Like-named read-outs stand apart in the source and are kept apart here. Bounds are passed on as bounds.

The experiment concerns the target aggregated MBP-HTT(1-89)Q46-His(6×) (Exonl-Q46) protein (Q46 protein aggregates) (Homo sapiens (Human), UniProt P42858, INS38QQQQQQQQQQQQQQQQQQQQQQQQQ). Put plainly: Q46 Radioligand Binding Assay. The following applies: read-out: Q46_RBA EC50_. As to the method:
Q46 Radioligand Binding Assay
For radioligand binding assays (RBA) MBP-HTT(1-89)Q46-His(6×) (“Exonl-Q46”) protein was generated based on a previous publication (Scherzinger et al. Cell, Vol. 90, 549-558, Aug. 8, 1997). For experiments 30 μM MBP-Exonl-Q46 was incubated with 150 μg/mL thrombin in assay buffer (150 mM NaCl, 50 mM Tris pH 8.0) and 2 mM CaCl2 for 16 hours at 37° C. Aggregated Exonl-Q46 was pelleted by centrifugation for 5 minutes at 13,000 rpm in a bench top centrifuge and re-dissolved in the same volume of assay buffer. Test compounds were prepared by titration in DMSO at 11 concentrations from 63 μM to 2 nM. For the RBA, Q46 protein aggregates and test compounds were pre-incubated in assay buffer for 20 minutes at room temperature, in 100 μL/well in a 96-well plate (pp, round bottom). Then, ligand was added in 50 μL/well and incubated for 60 minutes at 37° C. Final assay concentrations were 1 μM to 30 μM test compound, 1 μM Exonl-Q46 protein (equivalent monomer concentration) and 0.3 nM ligand [^3H3-methyl]-5-((5-methoxypyridin-2-yl)methoxy)-2-(pyrazin-2-yl)benzo[d]oxazole. Samples were transferred onto GF/B filter plates and washed 2× with 200 μL PBS using a Filtermate Harvester. After drying filter plates for 1 hour at 55° C., the back of the plates were sealed with foil and 30 μL/well scintillation fluid (Packard MicroScint 40) added, incubated for 15 minutes in the dark and counted in a MicroBeta reader. For analysis, replicate data from independent assay plates were normalized towards 0% and 100% inhibition using control wells of vehicle (0% inhibition) and 1 μM unlabelled [^3H3-methyl]-5-((5-methoxypyridin-2-yl)methoxy)-2-(pyrazin-2-yl)benzo[d]oxazole (100% inhibition). IC50 values were determined with a sigmoidal inhibition model with four variables (top, bottom, slope, IC50) in a global fit using the normalized replicate data.

Where [1] appears, read: displacement of 0.3 nM [3H3-methyl]-5-((5-methoxypyridin-2-yl)methoxy)-2-(pyrazin-2-yl)benzo[d]oxazole from 1 μM Exonl-Q46 aggregates, method calls the values IC50.
Setting [2] is: same radioligand displacement on Exonl-Q46 aggregates.

aggregated MBP-HTT(1-89)Q46-His(6×) (Exonl-Q46) protein (Q46 protein aggregates), sequence (P42858 other isoform, or with tags, fused parts or gaps, stated change not applied): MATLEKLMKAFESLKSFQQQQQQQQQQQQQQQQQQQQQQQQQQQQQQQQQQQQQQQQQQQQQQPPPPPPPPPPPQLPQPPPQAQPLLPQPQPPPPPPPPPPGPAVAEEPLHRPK

As to `COc1ccc(COc2ccc3c(c2)CN(C(=O)c2ccc(OC)nc2)CC3)nc1` [Example 1, 7-[(5-Methoxypyridin-2-yl)methoxy]-2-(6-methoxypyridine-3-carbonyl)-1,2,3,4-tetrahydroisoquinoline], the EC50 was 1.24 nM under setting [1] and under 100 nM under setting [2].
`COc1ccc(COc2ccc3c(c2)CN(C(=O)c2ccc(=O)n(C)n2)CC3)nc1` [Example 1.1]: the EC50 is 7.75 nM under setting [1] and under 100 nM under setting [2].
The like results for `COc1ccc(COc2ccc3c(c2)CCN(C(=O)c2ccc(OC)nn2)C3)nc1` [Example 1.2] were, in that order, 48.9 nM and under 100 nM.
The like results for `COc1ccc(COc2ccc3c(c2)CCN(C(=O)c2ccc(=O)n(C)n2)C3)nc1` [Example 1.3] were, in that order, 46.4 nM and under 100 nM.
On to `COc1ccc(COc2ccc3c(c2)CCN(C(=O)c2ccc(OC)nc2)C3)nc1` [Example 1.4], for which the EC50 was 8.48 nM under setting [1] and under 100 nM under setting [2].
The like results for `COc1ccc(COc2ccc3c(c2)CN(C(=O)c2cncc(OC)c2)CC3)nc1` [Example 1.5] were, in that order, 5.59 nM and under 100 nM.
The like results for `COc1ccc2c(c1)CN(C(=O)c1ccc(OC)nc1)CC2` [Example 1.6] were, in that order, 333 nM and 100 to 500 nM.
The like results for `COc1ccc(COc2ccc3c(c2)CN(C(C)=O)CC3)nc1` [Example 1.7] were, in that order, 96.5 nM and under 100 nM.
For the molecule `COc1ccc(COc2ccc3c(c2)CN(C(=O)c2cnc(OC)cn2)CC3)nc1` [Example 1.8], the EC50 under setting [1] came out at 1.2 nM and the concentration giving a half-maximal response (EC50) under setting [2] is under 100 nM.
The like results for `COc1ccc(COc2ccc3c(c2)CN(C(=O)c2cccnc2)CC3)nc1` [Example 1.9] were, in that order, 27.8 nM and under 100 nM.
The like results for `COc1ccc(COc2ccc3c(c2)CN(C(=O)c2ccc(OC)cn2)CC3)nc1` [Example 1.10] were, in that order, 5 nM and under 100 nM.
For the molecule `COc1ccc(COc2ccc3c(c2)CN(C(=O)c2ccc(OC)nn2)CC3)nc1` [Example 1.11], the EC50 by setting is: under setting [1], 5.2 nM; under setting [2], under 100 nM.
For the molecule `COc1ccc(COc2cccc3c2CCN(C(=O)c2ccc(OC)nc2)C3)nc1` [Example 1.12], the EC50 by setting is: under setting [1], 34.1 nM; under setting [2], under 100 nM.
Turning to `COc1ccc(COc2cccc3c2CN(C(=O)c2ccc(OC)nc2)CC3)nc1` [Example 1.13], the EC50 under setting [1] stood at 87.5 nM and the EC50 under setting [2] was under 100 nM.
For the molecule `COc1ccc(COc2ccc3c(c2)CN(C(=O)c2ccc(N(C)C)nc2)CC3)nc1` [Example 1.14], the half-maximal effective concentration (EC50) was 1.8 nM under setting [1] and under 100 nM under setting [2].
`COc1ccc(COc2ccc3c(c2)CN(C(=O)C2CCN(C)CC2)CC3)nc1` [Example 1.15]: the EC50 is, setting by setting: under setting [1], 951 nM; under setting [2], over 500 nM.
The like results for `COc1ccc(COc2cnc3c(c2)CN(C(=O)c2ccc(OC)nc2)CC3)nc1` [Example 1.16] were, in that order, 5.73 nM and under 100 nM.
The like results for `COc1ccc(COc2ccc3c(c2)CN(C(=O)c2ccc(C(F)(F)F)nc2)CC3)nc1` [Example 1.17] were, in that order, 2.54 nM and under 100 nM.
Turning to `COc1ccc(COc2cnc3c(c2)CN(C(=O)c2cncc(OCCF)c2)CC3)nc1` [Example 1.18], the EC50 runs as follows: under setting [1], 65 nM; under setting [2], under 100 nM.
The like results for `COc1ccc(COc2ccc3c(c2)CN(C(=O)c2ccc(=O)n(CCCF)c2)CC3)nc1` [Example 1.19] were, in that order, 5.45 nM and under 100 nM.
The like results for `COc1ccc(COc2ccc3c(c2)CN(C(=O)c2ccc(=O)n(CCF)n2)CC3)nc1` [Example 1.20] were, in that order, 4.24 nM and under 100 nM.
As for `COc1ccc(COc2cnc3c(c2)CN(C(=O)c2ccnc(OC)c2)CC3)nc1` [Example 1.21], the EC50 by setting is: under setting [1], 16.3 nM; under setting [2], under 100 nM.
The like results for `COc1ccc(COc2ccc3c(c2)CN(C(=O)c2cnc(OC)nc2)CC3)nc1` [Example 1.22] were, in that order, 2.1 nM and under 100 nM.
The like results for `COc1ccc(COc2cnc3c(c2)CN(C(=O)c2ccnc(OCCF)c2)CC3)nc1` [Example 1.23] were, in that order, 23 nM and under 100 nM.
For `COc1ccc(COc2ccc3c(c2)CN(C(=O)c2cnn(C)c2)CC3)nc1` [Example 1.24], the EC50 by setting is: under setting [1], 7.87 nM; under setting [2], under 100 nM.
Consider `COc1ccc(COc2ccc3c(c2)CN(C(=O)c2ccc(C)nc2)CC3)nc1` [Example 1.25], for which the EC50 by setting is: under setting [1], 2.91 nM; under setting [2], under 100 nM.
In the case of `COc1ccc(C(=O)N2CCc3ccc(OCc4ccc(OC)cn4)cc3C2)cc1` [Example 1.26], the EC50 runs as follows: under setting [1], 1.78 nM; under setting [2], under 100 nM.
With `COc1ccc(C(=O)N2CCc3ccc(OCc4cnn(C)c4)cc3C2)cn1` [Example 1.27], the EC50 was 52.4 nM under setting [1] and under 100 nM under setting [2].
On to `COc1ccc(COc2cnc3c(c2)CN(C(=O)c2cncc(OC)c2)CC3)nc1` [Example 1.28], for which the EC50 reads like this: under setting [1], 29.4 nM; under setting [2], under 100 nM.
The like results for `COc1ccc(COc2cnc3c(c2)CN(C(=O)c2ccn(CCF)c(=O)c2)CC3)nc1` [Example 1.29] were, in that order, 271 nM and 100 to 500 nM.
Regarding `COc1ccc(COc2ccc3c(c2)CNCC3)nc1` [Example 1.30, 7-[(5-Methoxypyridin-2-yl)methoxy]-1,2,3,4-tetrahydroisoquinolin-2-ium chloride], the EC50 by setting is: under setting [1], 1000 nM; under setting [2], over 500 nM.
As for `COc1ccc(COc2ccc3c(c2)C(=O)N(Cc2ccc(OC)nc2)CC3)nc1` [Example 2, 7-[(5-Methoxypyridin-2-yl)methoxy]-2-[(6-methoxypyridin-3-yl)methyl]-1,2,3,4-tetrahydroisoquinolin-1-one], the EC50 is, setting by setting: under setting [1], 98.5 nM; under setting [2], under 100 nM.
On to `COc1ccc(COc2ccc3c(c2)CN(c2ncc(OC)cn2)CC3)nc1` [Example 3, 7-[(5-Methoxypyridin-2-yl)methoxy]-2-(5-methoxypyrimidin-2-yl)-1,2,3,4-tetrahydroisoquinoline], for which the EC50 under setting [1] amounted to 1.26 nM and the EC50 under setting [2] was under 100 nM.
As to `COc1ccc(COc2ccc3c(c2)CN(C(=O)N2CCN(C)CC2)CC3)nc1` [Example 4, 7-[(5-Methoxypyridin-2-yl)methoxy]-2-(4-methylpiperazine-1-carbonyl)-1,2,3,4-tetrahydroisoquinoline], the EC50 reads like this: under setting [1], 73.2 nM; under setting [2], under 100 nM.
The like results for `COc1ccc(NC(=O)N2CCc3ccccc3C2)cn1` [Example 4.1] were, in that order, 1000 nM and over 500 nM.
As for `COc1ccc(COc2ccc3c(c2)CN(C(=O)Nc2ccc(OC)nc2)CC3)nc1` [Example 4.2], the EC50 was 6.92 nM under setting [1] and under 100 nM under setting [2].
For `COc1ccc(COc2ccc3c(c2)CN(C(=O)N2CCc4cc(OC)ncc4C2)CC3)nc1` [Example 4.3], the EC50 under setting [1] worked out at 3.67 nM and the EC50 under setting [2] is under 100 nM.
The like results for `COc1ccc(COc2ccc3c(c2)CN(C(=O)N2CC4(COC4)C2)CC3)nc1` [Example 4.4] were, in that order, 1000 nM and over 500 nM.
Take `COc1ccc(COC(=O)N2CCc3ccccc3C2)cn1` [Example 5, (6-Methoxypyridin-3-yl)methyl 1,2,3,4-tetrahydroisoquinoline-2-carboxylate]: the EC50 was 1000 nM under setting [1] and over 500 nM under setting [2].
The like results for `COc1ccc(COc2ccc3c(c2)CN(C(=O)OCc2ccc(OC)nc2)CC3)nc1` [Example 5.1] were, in that order, 1.65 nM and under 100 nM.
The like results for `COc1ccc(COc2ccc3c(c2)CN(c2cncc(OC)c2)CC3)nc1` [Example 6.1] were, in that order, 2.65 nM and under 100 nM.
The like results for `COc1ccc(COc2cnc3c(c2)CN(c2ncc(OC)cn2)CC3)nc1` [Example 6.2] were, in that order, 1.97 nM and under 100 nM.
In the case of `COc1ccc(COc2cnc3c(c2)CN(c2cncc(OC)c2)CC3)nc1` [Example 6.3], the EC50 was 7.86 nM under setting [1] and under 100 nM under setting [2].
For the molecule `COc1ccc(COc2ccc3c(c2)CN(c2ccc(OC)nc2)CC3)nc1` [Example 6], the EC50 is 2.21 nM under setting [1] and under 100 nM under setting [2].
Regarding `COc1ccc(COc2ccc3c(c2)CN(Cc2ccc(OC)nc2)CC3)nc1` [Example 7], the EC50 is, setting by setting: under setting [1], 137 nM; under setting [2], 100 to 500 nM.
